Earlier results as cited in patent US20100297232A1, “ONDANSETRON FILM COMPOSITIONS” (MonoSol Rx, LLC, priority 2009, published 2010).
Like-named read-outs stand apart in the source and are kept apart here.

For `Cc1nccn1CC1CCc2c(c3ccccc3n2C)C1=O` (centres unmarked) [ondansetron base, ondansetron], the solubility (pH 1.2 and below) is given as “soluble” and the solubility (pH 8) is given as “practically insoluble”.
